Measured values: patent US10571448B2, “Method and system for comprehensive evaluation of organic compound and heavy metal pollution in water based on fish electrocardio” (priority 2018, dated 2020)

Tests used:
[1] = test system: koi; assay: 48 h semi-lethal concentration of heavy metal solutions for koi; conditions: recorded as 1 toxic unit (1 TU)
[2] = test system: zebrafish; assay: 48 h medial lethal concentration of deltamethrin for zebrafish; format: in vivo; conditions: recorded as 1 toxic unit (1 TU)
Description: Three zebrafishes were used in each exposed group.

[3] = test system: zebrafish; assay: Zebrafish electro-cardio indexes under deltamethrin exposure, with Pearson correlation to environmental stress E; conditions: as concentration increased (0.52, 2, 2.6 μg/L), 0-48 h
Description: Fish electro-cardio signals respectively before and after the fish is exposed to a solution containing a specific organic compound are gathered by the real-time and miniaturized fish electro-cardio acquisition system, and various electro-cardio indexes are respectively extracted.
The correlation between environmental stress and respective extracted electro-cardio indexes is analyzed according to Pearson Correlation Analysis to select an electro-cardio index suitable for the assessment of water quality with respect to this specific organic compound.
A linear regression model between the environmental stress and respective electro-cardio indexes is analyzed and assessed according to Akaike Information Criterion and the sum of square error to finally obtain an electro-cardio index suitable for the assessment of water quality with respect to the specific organic compound.
In the present method, the real-time electro-cardio signals were acquired from multiple fishes respectively exposed to different concentrations of the specific organic compound. Firstly, the zebrafish was exposed to an organic solvent deltamethrin solution. […]
The acquired electro-cardiographs were subjected to filtering and interference removal to become clearer; the analyzed data was processed, and then was analyzed by Matlab software and SPSS software to estimate the electro-cardio changes based on data differences. […]

SMILES	48 h semi-lethal concentration [1] [mg/L]	48 h medial lethal concentration [2] [µg/L]	PR interval, QRS interval, ST interval and QT interval [3]	amplitudes of P-wave, Q-wave, R-wave, S-wave and T-wave [3]
[Mn+2] [manganese]	2.75	–	–	–
[Cl][Hg][Cl] [mercury chloride]	0.13	–	–	–
CC1(C)[C@H](C(=O)O[C@H](C#N)c2cccc(Oc3ccccc3)c2)[C@@H]1C=C(Br)Br [deltamethrin]	–	5.2	increased	decreased
[Cl][Cd][Cl] [cadmium chloride]	23.6	–	–	–
